The source of these data is the RepoRT retention time repository.

The series is described as follows: Thermo Scientific Acclaim RSLC 120 C18, 100 × 2.1 mm, 2.2 µm, 30 °C, 0.2 to 0.48 mL/min, estimated dead time 1.1 min; A: 90% water + 10% methanol + 5 mM ammonium acetate; B: methanol + 5 mM ammonium acetate; gradient (min/%B) 0.1/1 3/39 14/99.9 16/99.9. As to conditions: stereoisomer not certain.
Regarding `Nc1ccc(O)c(C(=O)O)c1`, the LC retention time is 2.04 min. The same measure for `Cc1cccc(Nc2ccncc2S(=O)(=O)NC(=O)NC(C)C)c1`: 8.29 min; for `C#CC1(O)CCC2C3CCC4=CC(=O)CCC4=C3C=CC21CC` (centres undefined): 9.64 min; for `COc1ccc(CC(C)NCC(O)c2ccc(O)c(NC=O)c2)cc1` (centres undefined): 5.91 min. In the case of `CC(C(=O)O)c1cccc(C(=O)c2ccccc2)c1` (centres undefined), the LC retention time was 6.77 min. For the molecule `CC(C)c1ccc(NC(=O)N(C)C)cc1`, the LC retention time is 8.29 min. On to `COC1CCC(OC2CC(C3OC(C)(O)C(C)CC3C)OC2C2(C)CCC(C3(C)CCC4(CC(O)C(C)C(C(C)C5OC(O)(CC(=O)O)C(C)C(O)C5OC)O4)O3)O2)OC1C` (centres undefined), for which the LC retention time was 13.7 min.

Take `Cc1ccc(C(C)NC(=O)C(NC(=O)OC(C)C)C(C)C)cc1` (centres undefined): the LC retention time was 9.8 min. As for `CNC(=C[N+](=O)[O-])NCCSCc1ccc(CN(C)C)o1`, the LC retention time was 4.67 min. As to `CCC(C)C1(CC)C(=O)NC(=O)NC1=O` (centres undefined), the LC retention time is 6.83 min.

Take `CCCC(CCC)C(=O)O`: the LC retention time is 7.04 min. Consider `CCc1cccc(C)c1N(C(=O)CS(=O)(=O)O)C(C)COC` (centres undefined), for which the LC retention time is 8.19 min.

`CCOC(=O)CSc1nc(C(C)(C)C)nn1C(=O)N(C)C`: the LC retention time was 6.37 min. With `COC(=O)c1sccc1S(=O)(=O)NC(=O)Nc1nc(C)nc(OC)n1`, the LC retention time is 4.52 min. For `CC(C)N1C(=O)c2ccccc2NS1(=O)=O`, the LC retention time was 4.49 min. As to `CC1=CC(=O)CC2CCC3C4CCC(O)C4(C)CCC3C12C` (centres undefined), the LC retention time is 13.8 min.

Consider `CS(=O)(=O)c1ccc(C(=O)C2C(=O)CCCC2=O)c([N+](=O)[O-])c1`, for which the LC retention time is 2.13 min. On to `CC(C)Cc1ccc(C(C)C(=O)O)cc1` (centres undefined), for which the LC retention time was 9.72 min.

In the case of `Cc1ccc(NS(=O)(=O)N(C)C)cc1`, the LC retention time is 7.23 min. Take `CNC(=N[N+](=O)[O-])NCC1CCOC1` (centres undefined): the LC retention time was 3.59 min.

`CCOC(=O)NCCOc1ccc(Oc2ccccc2)cc1`: the LC retention time is 10.6 min. With `CNC(=O)Oc1cccc2c1OC(C)(C)C2O` (centres undefined), the LC retention time was 5.09 min. In the case of `CC(C)N(C(=O)CS(=O)(=O)O)c1ccccc1`, the LC retention time is 6.01 min. In the case of `Cc1ccc(NC(=O)NC(C)(C)c2ccccc2)cc1`, the LC retention time is 9.64 min. For the molecule `CNC(=O)N(C)c1nnc(C(C)(C)C)s1`, the LC retention time is 7.21 min. Turning to `CCOc1ccc(NC(=O)OC(C)C)cc1OCC`, the LC retention time is 9.01 min. For `O=C(O)CCC(=O)c1ccc(-c2ccccc2)cc1` the value was 6.79 min; for `On1nnc2ccccc21`, 3.69 min.

Take `O=C(O)c1cccc(Oc2ccccc2)c1`: the LC retention time is 7.77 min. As for `COCc1cnc(C2=NC(C)(C(C)C)C(=O)N2)c(C(=O)O)c1` (centres undefined), the LC retention time is 3.74 min.

As for `CC(C)CN(CC(O)C(Cc1ccccc1)NC(=O)OC1COC2OCCC12)S(=O)(=O)c1ccc(N)cc1` (centres undefined), the LC retention time is 9.37 min. Consider `CCC(CC)OC1C=C(C(=O)O)CC(N)C1NC(C)=O` (centres undefined), for which the LC retention time is 4.92 min. Take `CNCC(O)c1cccc(O)c1` (centres undefined): the LC retention time is 3.24 min.

For the molecule `CCC1(CC)C(=O)NC(=O)NC1=O`, the LC retention time was 4.8 min. As to `CCCC(C)C1(CC)C(=O)NC(=O)NC1=O` (centres undefined), the LC retention time was 7.92 min. With `O=c1[nH]c2c(c(=O)n1C1CCCCC1)CCC2`, the LC retention time is 8.23 min.

`CCCCc1c(C)nc(NCC)[nH]c1=O`: the LC retention time is 8.39 min.

`CCNC(=O)C(C)OC(=O)Nc1ccccc1` (centres undefined): the LC retention time was 6.54 min. For the molecule `CCNCC(=O)Nc1c(C)cccc1C`, the LC retention time was 5.99 min.

For `CC12CCC3C(CC(O)C4=CC(=O)CCC43C)C1CCC2=O` (centres undefined), the LC retention time was 6.99 min. For `Cc1onc(-c2ccccc2)c1-c1ccc(S(N)(=O)=O)cc1`, the LC retention time is 7.46 min. The same measure for `CCCCCc1cc(O)c2c(c1)OC(C)(C)C1CCC(CO)=CC21` (centres undefined): 12.3 min; for `CCC(C(=O)O)C1CCC(C)C(C(C)C(O)C(C)C(=O)C(CC)C2OC3(C=CC(O)C4(CCC(C)(C5CCC(O)(CC)C(C)O5)O4)O3)C(C)CC2C)O1` (centres undefined): 14.7 min; for `CC12CCC3C(CCC4CC(OC5OC(C(=O)O)C(O)C(O)C5O)CCC43C)C1CCC2=O` (centres undefined): 10.2 min. In the case of `O=C(c1ccc(OCCN2CCCCC2)cc1)c1c(-c2ccc(O)cc2)sc2cc(O)ccc12`, the LC retention time is 8.86 min. As to `COP(=S)(OC)Oc1ccc(S(N)(=O)=O)cc1`, the LC retention time was 6.16 min. Take `CC(Cn1cnc2c(N)ncnc21)OCP(=O)(O)O` (centres undefined): the LC retention time is 3.18 min. Take `CCCCOc1cc(C(=O)NCCN(CC)CC)c2ccccc2n1`: the LC retention time is 11.6 min. On to `NC(=O)N=C(N)N`, for which the LC retention time was 1.73 min. Take `CCN1CCCC1CNC(=O)c1cc(S(N)(=O)=O)ccc1OC` (centres undefined): the LC retention time was 4.42 min. As for `CCc1cnc(C2=NC(C)(C(C)C)C(=O)N2)c(C(=O)O)c1` (centres undefined), the LC retention time is 4.32 min. `COc1ccc(C(O)(c2cncnc2)C2CC2)cc1` (centres undefined): the LC retention time is 7.12 min. For `CC(C)Nc1nc(N)[nH]c(=O)n1`, the LC retention time was 4.08 min. With `CCCCNc1cc(C(=O)O)cc(S(N)(=O)=O)c1Oc1ccccc1`, the LC retention time is 6.73 min. With `O=S(=O)(O)NC1CCCCC1`, the LC retention time was 4.12 min. `NC(=O)c1ncn(C2OC(CO)C(O)C2O)n1` (centres undefined): the LC retention time was 1.46 min. For `Oc1ccc(C=Cc2cc(O)cc(O)c2)cc1` the value was 6.82 min. For `CCOP(=O)(NC(C)C)Oc1ccc(S(C)(=O)=O)c(C)c1` (centres undefined) the value was 7.17 min; for `O=C1CN=C(c2ccccc2)c2c(sc3c2CCCC3)N1`, 9.91 min; for `COC(=O)c1ccc(C)cc1C1=NC(C)(C(C)C)C(=O)N1` (centres undefined), 7.15 min. As for `NCC(O)c1ccc(O)cc1` (centres undefined), the LC retention time was 1.96 min. Turning to `CCCCC(=O)N(Cc1ccc(-c2ccccc2-c2nn[nH]n2)cc1)C(C(=O)O)C(C)C` (centres undefined), the LC retention time was 8.17 min. `CCNc1nc(NC(C)C)[nH]c(=O)n1`: the LC retention time was 6 min. In the case of `CC(C)C(N)C(=O)OCC(CO)OCn1cnc2c(=O)[nH]c(N)nc21` (centres undefined), the LC retention time was 4.08 min. On to `Cc1cccc(Nc2ccccc2C(=O)O)c1C`, for which the LC retention time is 9.29 min. The same measure for `C=C(c1ccc(C(=O)O)cc1)c1cc2c(cc1C)C(C)(C)CCC2(C)C`: 14.1 min.

Take `COC(=O)c1ccccc1S(=O)(=O)NC(=O)Nc1nc(C)nc(OC)n1`: the LC retention time was 4.51 min. Turning to `CC(C)Nc1nc(NC(C)C)[nH]c(=O)n1`, the LC retention time is 8.19 min.

Consider `CC(C)(C#N)c1cc(Cn2cncn2)cc(C(C)(C)C#N)c1`, for which the LC retention time was 6.38 min. Turning to `CCC1(c2ccccc2)C(=O)NC(=O)NC1=O`, the LC retention time is 6.1 min.

Regarding `COc1ccc2cc(C(C)C(=O)O)ccc2c1` (centres undefined), the LC retention time is 6.74 min. Turning to `CSC1=NC(C)(c2ccccc2)C(=O)N1Nc1ccccc1` (centres undefined), the LC retention time was 9.18 min. Consider `CNC(=O)Nc1nc2ccccc2s1`, for which the LC retention time was 7.1 min. For the molecule `CC(C)(C)Nc1nc(N)[nH]c(=O)n1`, the LC retention time is 5.42 min.

As for `CC1C=CC=CCCC=CC=CC=CC=CC(OC2OC(C)C(O)C(N)C2O)CC2OC(O)(CC(O)C(O)CCC(O)CC(O)CC(O)CC(=O)OC(C)C(C)C1O)CC(O)C2C(=O)O` (centres undefined), the LC retention time was 11.8 min. Take `CC(=O)Nc1ccc(S(=O)(=O)Nc2nccs2)cc1`: the LC retention time is 4.61 min. With `Cc1ccc(S(N)(=O)=O)cc1`, the LC retention time is 4.79 min. For the molecule `CCOC(=O)c1cn2nc(OP(=S)(OCC)OCC)cc2nc1C`, the LC retention time was 11.4 min.

For the molecule `O=C(O)Cc1cccc2ccccc12`, the LC retention time is 5.7 min.

With `CC1(C)SC2C(NC(=O)C(N)c3ccc(O)cc3)C(=O)N2C1C(=O)O` (centres undefined), the LC retention time was 3.68 min. Consider `CCOC1OC(C(=O)O)C(O)C(O)C1O` (centres undefined), for which the LC retention time was 1.35 min. Turning to `CC1=CC(=O)NS(=O)(=O)O1`, the LC retention time was 2.34 min. Consider `CC(C)(C)c1cc([N+](=O)[O-])cc([N+](=O)[O-])c1O`, for which the LC retention time is 8.13 min.

For `CCC1OC(=O)C(C)C(OC2CC(C)(OC)C(O)C(C)O2)C(C)C(OC2OC(C)CC(NC)C2O)C(C)(OC)CC(C)C(=O)C(C)C(O)C1(C)O` (centres undefined), the LC retention time is 11.3 min. Turning to `O=C(Nc1ccccc1)Nc1cnns1`, the LC retention time was 7.12 min. With `NS(=O)(=O)Cc1noc2ccccc12`, the LC retention time is 5.17 min. The same measure for `Cc1c(NC=O)c(=O)n(-c2ccccc2)n1C`: 4.51 min; for `CC1CC(C)C(=O)C(C(O)CC2CC(=O)NC(=O)C2)C1` (centres undefined): 6.32 min; for `NC(=O)c1ccccc1O`: 4.83 min. For `CC1=NNC(=O)N(N=Cc2cccnc2)C1` the value was 4.13 min; for `O=c1nccc[nH]1`, 5.01 min; for `CC12CCC3C(CCC4=CC(=O)CCC43C)C1CCC2=O` (centres undefined), 13.1 min. Consider `S=c1nc[nH]c2nc[nH]c12`, for which the LC retention time is 2.62 min. For `COC(=O)C(C)=COP(=S)(OC)OC`, the LC retention time is 5.12 min. With `CC(C)CC(CN)CC(=O)O` (centres undefined), the LC retention time was 4.04 min.

As for `CC12CCC(=O)C=C1CCC1C2C(O)CC2(C)C(C(=O)CO)CCC12` (centres undefined), the LC retention time is 9.91 min. The same measure for `CCC(C)c1cc([N+](=O)[O-])cc([N+](=O)[O-])c1O` (centres undefined): 7.92 min. For `O=C(O)c1ccccc1O`, the LC retention time was 3.58 min. The same measure for `COc1cc(OC)nc(NC(=O)NS(=O)(=O)c2ncccc2C(=O)N(C)C)n1`: 4.32 min.
